Reference: patent US10695330B2, “Methods of treatment” (Global Blood Therapeutics, Inc., priority 2015, dated 2020)

Experiments:
activated neutrophils = experiment: Oxidative burst in activated neutrophils; assay type: cell-based; conditions: in vitro
Source text: Reactive oxygen species (ROS) released from activated white blood cells cause lung injury as well as fibrotic changes in patients with IPF. […] Thus, the compounds described herein could also provide a method to inhibit the adverse effects of inflammation in a patient. Reduction in systemic pro-inflammatory cytokines (tumor necrosis alpha and interleukin-6) also has the potential to exert a broad anti-inflammatory effect which would supplement the beneficial effect of alleviation of hypoxemia via increased hemoglobin-O2 affinity.

Hb = target: T1, Hb (Mus musculus, UniProt P01942); experiment: Bleomycin mouse model: PK/PD (blood and plasma concentrations, Hb occupancy, hemoximetry); assay type: in vivo; conditions: bleomycin treated mice; for calculated Hb occupancy: 4 hours after last dose
T1 construct: from tissue; host or cells: whole blood (red blood cells) of dosed C57BL / C57BL/6J mice
T1 sequence (P01942 2-142 limits assumed): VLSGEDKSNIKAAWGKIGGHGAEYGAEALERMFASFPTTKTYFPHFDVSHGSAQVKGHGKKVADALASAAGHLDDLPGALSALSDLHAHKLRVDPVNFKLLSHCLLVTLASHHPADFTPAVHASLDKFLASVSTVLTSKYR
T1 sequence (P02088 2-147 partner limits assumed): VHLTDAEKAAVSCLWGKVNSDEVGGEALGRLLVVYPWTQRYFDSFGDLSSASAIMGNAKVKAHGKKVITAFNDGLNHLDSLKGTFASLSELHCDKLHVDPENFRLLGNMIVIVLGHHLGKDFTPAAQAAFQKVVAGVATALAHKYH
Description: Compound 1 (formulated in dimethylacetamide: polyethylene glycol 400 (PEG400): 40% cavitron at a 1:5:4 ratio) was administered at either low dose (first day 50 mg/kg followed by 40 mg/kg daily) or high dose (first day 150 mg/kg followed by 85 mg/kg daily) via oral gavage to bleomycin treated mice once daily from day 8 to day 15. Animals in group 1 were administered vehicle via oral gavage. The dosing volume was 200 μL. The study animals were sacrificed on day 15 at 4 hours post final dose.
Samples for hemoximetry and pharmacokinetics (PK) were taken 4 hours following the last dose of the dosing regimen. BAL fluid was collected from the lungs of the animals by lavaging the lung with 1 ml Hanks balanced salt media (HBSS). Lungs were harvested from each animal and weighed. They were then inflated by ˜0.5 mL of 10% NBF and fixed in a formalin container for subsequent histopathological analysis.
Compound 1 blood and plasma concentrations were determined by LC-MS 4 hours after the last dose. Both standard and QC blood samples were pre-incubated at 37° C. for 1 hr. After incubation, all standard and QC samples were diluted with 2-fold volume of water to match with the condition of samples. Plasma standard and QC were proceeding without pre-incubation. […] The peak area of m/z 341->203 product ion (Compound 1) was measured against that of the m/z 345->159 product ion 2-hydroxy-6-((2-(1-(propan-2-yl-d7)-1H-pyrazol-5-yl)pyridin-3-yl)methoxy)benzaldehyde in positive ion mode. […]
Hemoglobin occupancy by Compound 1 was calculated by dividing the concentration of Compound 1 in RBCs by the Hb concentration in RBCs (5 mM). RBC was calculated from whole blood and plasma concentration data using the following equation: […]
Hemoximetry measurements (PD analysis) were conducted in a Hemox Analyzer (TCS Scientific Corporation, New Hope, Pa.). […] The absorbance at wavelengths that correspond to the isosbestic point (570 nm) and deoxy Hb (560 nm) was recorded as a function of the sample O2 tension (pO2). […]

SMILES: O=Cc1c(O)cccc1OC[C@@H]1CCCCN1C(=O)c1cccnc1 [Compound 1, (S)-2-hydroxy-6-((1-nicotinoylpiperidin-2-yl)methoxy)benzaldehyde]
- anti-oxidative activity (oxidative burst) (activated neutrophils): displayed anti-oxidative
- calculated Hb occupancy (Hb; high dose regimen (150 then 85 mg/kg daily)): 36.7%
- shift in the OEC (Hb-oxygen binding affinity) (Hb; low and high dose): significant left shift in the OEC in a dose-response manner
- calculated Hb occupancy (Hb; low dose regimen (50 then 40 mg/kg daily)): 18.0%
